Experimental data: PubChem BioAssay AID192 (DTP/NCI, 2004)
Toxic doses and inconclusive results are not listed. Rule for the calls: active = survival T/C of 150% or more; inactive = T/C below 125% in these data.

Tested on: BDF1 mice, B16 melanoma ip, median survival T/C
Assay: NCI In Vivo Anticancer Drug Screen. Data for tumor model B16 Melanoma (intraperitoneal) in B6D2F1 (BDF1) mice
Details: endpoint: median survival time, higher = longer survival
Summary of the method: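 Tumor-bearing mice received test compound or vehicle. Survival or tumor size was then measured in both groups. The treated-group figure was divided by the control-group figure.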

[1] = dose: 100.0 mg/kg/injection, schedule: Q01DX009 (ip), vehicle: saline with Tween-80
[2] = dose: 6.25 mg/kg/injection, schedule: Q01DX009 (ip), vehicle: saline with Tween-80
[3] = dose: 25.0 mg/kg/injection, schedule: Q01DX009 (ip), vehicle: saline with Tween-80
[4] = dose: 50.0 mg/kg/injection, schedule: Q01DX009 (ip), vehicle: saline with Tween-80

Measured: T/C

c1ccc2cc(-c3csc4ccccc34)ccc2c1
inactive: dose: 100.0 mg/kg/injection, schedule: Q04DX003 (ip), vehicle: Klucel (hydroxypropylcellulose) (HPC) 91 % of control | dose: 200.0 mg/kg/injection, schedule: Q04DX003 (ip), vehicle: Klucel (hydroxypropylcellulose) (HPC) 97 % of control | dose: 400.0 mg/kg/injection, schedule: Q04DX003 (ip), vehicle: Klucel (hydroxypropylcellulose) (HPC) 102 % of control

CC(=O)CC(=O)Nc1cc(Cl)ccc1C
inactive: dose: 50.0 mg/kg/injection, schedule: Q01DX009 (ip), vehicle: Klucel (hydroxypropylcellulose) (HPC) 105 % of control | dose: 100.0 mg/kg/injection, schedule: Q01DX009 (ip), vehicle: Klucel (hydroxypropylcellulose) (HPC) 92 % of control | dose: 200.0 mg/kg/injection, schedule: Q01DX009 (ip), vehicle: Klucel (hydroxypropylcellulose) (HPC) 94 % of control

CC(=O)OC1CCC(C2CCCCC2)CC1 (stereo not given)
inactive: [1] 111 % of control | dose: 200.0 mg/kg/injection, schedule: Q01DX009 (ip), vehicle: saline with Tween-80 118 % of control

ClC1CCC[N-]C1.ClC1CCC[N-]C1.[Cl][Pt+2]([Cl])([Cl])[Cl] (stereo not given)
inactive: dose: 0.78 mg/kg/injection, schedule: Q01DX009 (ip), vehicle: saline with Tween-80 105 % of control | dose: 1.56 mg/kg/injection, schedule: Q01DX009 (ip), vehicle: saline with Tween-80 100 % of control | dose: 3.13 mg/kg/injection, schedule: Q01DX009 (ip), vehicle: saline with Tween-80 97 % of control | [2] 106 % of control

CC(C)CNC(=O)c1ccc(N=NN(C)Cc2ccncc2)cc1
inactive: [3] 93 % of control | [4] 97 % of control | [1] 103 % of control

CC(C)(C)OC(=O)NC(CCCCNC(=O)C(F)(F)F)C(=O)ON1C(=O)CCC1=O (stereo not given)
inactive: dose: 25.0 mg/kg/injection, schedule: Q04DX003 (ip), vehicle: saline with Tween-80 114 % of control | dose: 50.0 mg/kg/injection, schedule: Q04DX003 (ip), vehicle: saline with Tween-80 115 % of control | dose: 100.0 mg/kg/injection, schedule: Q04DX003 (ip), vehicle: saline with Tween-80 90 % of control

CC(=O)Nc1ccc(S(=O)(=O)N/N=C\c2ccc(Cl)c(Cl)c2)cc1
inactive: [2] 111 % of control | dose: 12.5 mg/kg/injection, schedule: Q01DX009 (ip), vehicle: saline with Tween-80 105 % of control | [3] 117 % of control

O=[N+]([O-])c1cc(S(=O)(=O)OCC2CO2)ccc1Cl (stereo not given)
inactive: dose: 0.1 mg/kg/injection, schedule: Q01DX009 (ip), vehicle: saline with Tween-80 100 % of control | dose: 0.2 mg/kg/injection, schedule: Q01DX009 (ip), vehicle: saline with Tween-80 93 % of control | dose: 0.4 mg/kg/injection, schedule: Q01DX009 (ip), vehicle: saline with Tween-80 97 % of control | dose: 0.8 mg/kg/injection, schedule: Q01DX009 (ip), vehicle: saline with Tween-80 95 % of control

O=C(O)c1nnc(C(=O)O)nn1
inactive: dose: 12.5 mg/kg/injection, schedule: Q01DX009 (ip), vehicle: water 101 % of control | dose: 25.0 mg/kg/injection, schedule: Q01DX009 (ip), vehicle: water 96 % of control | dose: 50.0 mg/kg/injection, schedule: Q01DX009 (ip), vehicle: water 106 % of control | dose: 100.0 mg/kg/injection, schedule: Q01DX009 (ip), vehicle: water 100 % of control

Oc1ccccc1O.[O-]c1ccccc1[O-].[O-]c1ccccc1[O-].[O]=[V+2]
inactive: dose: 2.5 mg/kg/injection, schedule: Q01DX009 (ip), vehicle: saline 88 % of control | dose: 5.0 mg/kg/injection, schedule: Q01DX009 (ip), vehicle: saline 91 % of control | dose: 10.0 mg/kg/injection, schedule: Q01DX009 (ip), vehicle: saline 97 % of control

CC1CC(C)CC(C)C(O)/C(C#N)=C/C=C/CC(C2CCCC2C(=O)O)OC(=O)CC(O)C(C)C1 (stereo not given)
inactive: dose: 0.12 mg/kg/injection, schedule: Q01DX009 (ip), vehicle: Klucel (hydroxypropylcellulose) (HPC) 111 % of control | dose: 0.12 mg/kg/injection, schedule: Q01DX009 (ip), vehicle: saline with Tween-80 119 % of control | dose: 0.25 mg/kg/injection, schedule: Q01DX009 (ip), vehicle: Klucel (hydroxypropylcellulose) (HPC) 108 % of control | dose: 0.25 mg/kg/injection, schedule: Q01DX009 (ip), vehicle: saline with Tween-80 113 % of control | dose: 0.5 mg/kg/injection, schedule: Q01DX009 (ip), vehicle: Klucel (hydroxypropylcellulose) (HPC) 110 % of control | dose: 1.0 mg/kg/injection, schedule: Q01DX009 (ip), vehicle: Klucel (hydroxypropylcellulose) (HPC) 107 % of control | dose: 2.0 mg/kg/injection, schedule: Q01DX009 (ip), vehicle: Klucel (hydroxypropylcellulose) (HPC) 105 % of control | dose: 4.0 mg/kg/injection, schedule: Q01DX009 (ip), vehicle: Klucel (hydroxypropylcellulose) (HPC) 98 % of control

CCC(CC)OCCN1CCN(CCCN2c3ccccc3Sc3ccc(C(F)(F)F)cc32)CC1
inactive: dose: 0.5 mg/kg/injection, schedule: Q01DX009 (ip), vehicle: saline with Tween-80 109 % of control | dose: 1.0 mg/kg/injection, schedule: Q01DX009 (ip), vehicle: saline with Tween-80 103 % of control

CS(=O)(=O)c1cc(C(F)(F)F)cc([N+](=O)[O-])c1Cl
inactive: [3] 89 % of control | [4] 95 % of control | [1] 95 % of control
